Measured values from the supplement of paper PMC10307832.

How the values were obtained:
Assay in all cases: relative viability (nuclei count vs DMSO), 5 days (fraction); higher = more cells survive
[1] = compound: CC[C@@H](C)CNCC(=O)N1CCC2=C([C@@H]1COC3=CC=CC(=C3)C)C=CS2 [RU-SKI 43] + Nc1nc2[nH]cc(CCc3ccc(C(=O)N[C@@H](CCC(=O)O)C(=O)O)cc3)c2c(=O)[nH]1 [Pemetrexed] (partner 0.2 µM)
How it was run: (§1)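 The day after seeding in 1536-well plates, lung cancer cell lines were treated by pin tool with a single drug, or with a fixed anchor-drug dose together with five library-drug doses (not always all listed) in √10 steps. After 5 days, a combined fix-and-stain solution (final 0.05% Triton X-100, 1% formaldehyde, 1 ug/ml Hoechst) was added. Nuclei counted on 4× images gave relative viability as treated counts over vehicle counts, reported as the median of duplicate plates.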

[2] = compound: CCc1c2c(nc3ccc(OC(=O)N4CCC(N5CCCCC5)CC4)cc13)-c1cc3c(c(=O)n1C2)COC(=O)[C@]3(O)CC [Irinotecan] + CS(=O)(=O)N1CCN(Cc2cc3nc(-c4cccc5[nH]ncc45)nc(N4CCOCC4)c3s2)CC1 [Pictilisib] (partner 1 µM)
How it was run: as §1

[3] = compound: CC[C@@H](C)CNCC(=O)N1CCC2=C([C@@H]1COC3=CC=CC(=C3)C)C=CS2 [RU-SKI 43] + O=C(CCCCCCC(=O)Nc1ccccc1)NO [Vorinostat] (partner 1 µM)
How it was run: as §1

[4] = compound: CC[C@@H](C)CNCC(=O)N1CCC2=C([C@@H]1COC3=CC=CC(=C3)C)C=CS2 [RU-SKI 43] + COc1cccc2cc(-c3nc([C@H]4CC[C@H](C(=O)O)CC4)n4ncnc(N)c34)[nH]c12 [OSI-027] (partner 0.5 µM)
How it was run: as §1

Cell Line	relative viability ([1]; first compound 0.1 µM)	relative viability ([1]; first compound 0.3162 µM)	relative viability ([1]; first compound 1 µM)	relative viability ([1]; first compound 3.162 µM)	relative viability ([1]; first compound 10 µM)	relative viability ([2]; first compound 2 µM)	relative viability ([2]; first compound 6.325 µM)	relative viability ([2]; first compound 20 µM)	relative viability ([3]; first compound 0.1 µM)	relative viability ([3]; first compound 0.3162 µM)	relative viability ([3]; first compound 1 µM)	relative viability ([3]; first compound 3.162 µM)	relative viability ([3]; first compound 10 µM)	relative viability ([4]; first compound 0.1 µM)	relative viability ([4]; first compound 0.3162 µM)	relative viability ([4]; first compound 1 µM)	relative viability ([4]; first compound 3.162 µM)	relative viability ([4]; first compound 10 µM)	relative viability ([2]; first compound 0.6325 µM)
201T	0.374	0.311	0.307	0.358	0.321	0.738	0.36	0.346	0.968	1.17	1.09	1.06	0.957	0.834	0.709	1.06	0.69	0.458	–
A549	–	–	–	–	–	0.452	0.139	0.0724	–	–	–	–	–	–	–	–	–	–	0.502
A-427	1.02	0.948	1.15	1.04	0.995	0.392	0.19	0.225	0.868	0.823	0.933	0.873	0.786	0.471	0.345	0.546	0.507	0.43	–
ABC-1	–	–	–	–	–	0.556	0.424	0.112	0.964	1.08	1.27	1.01	1.16	0.541	0.385	0.554	0.52	0.473	–
BEN	0.941	0.682	0.997	0.665	0.825	0.461	0.253	0.349	0.621	0.531	0.665	0.639	0.546	0.31	0.292	0.306	0.302	0.33	0.508
CAL-12T	1.16	1.36	1.39	1.2	1.22	0.396	0.443	0.327	0.77	0.89	0.909	0.699	0.692	0.612	0.447	0.721	0.911	0.543	0.4
COR-L23	0.203	0.202	0.205	0.22	0.189	0.363	0.228	0.0867	0.427	0.376	0.532	0.499	0.387	0.718	0.99	0.865	0.881	0.614	0.338
COR-L 105	1.11	1.12	1.17	1.04	1.03	0.515	0.411	0.231	0.8	0.913	0.796	0.886	0.895	0.672	0.817	0.708	0.677	0.665	0.309
Calu-6	–	–	–	–	–	0.417	0.219	0.0958	–	–	–	–	–	–	–	–	–	–	0.573
ChaGo-K-1	0.268	0.299	0.249	0.284	0.265	0.645	0.523	0.161	0.759	0.731	0.853	0.77	0.762	0.658	0.632	0.646	0.579	0.744	–
EBC-1	–	–	–	–	–	0.301	0.315	0.131	–	–	–	–	–	–	–	–	–	–	0.29
EKVX	0.419	0.344	0.417	0.407	0.393	0.421	0.224	0.163	0.658	0.614	0.707	0.643	0.632	0.412	0.67	0.725	0.813	0.466	0.503
EMC-BAC-2	0.441	0.401	0.455	0.428	0.443	0.373	0.234	0.223	0.526	0.362	0.79	0.375	0.521	0.336	0.32	0.365	0.378	0.361	0.37
EPLC-272H	0.349	0.405	0.243	0.317	0.238	0.305	0.188	0.195	0.467	0.384	0.426	0.401	0.31	0.32	0.222	0.278	0.326	0.282	0.212
H3255	0.554	0.61	0.571	0.555	0.595	0.272	0.222	0.23	0.838	0.763	1.1	0.851	0.769	0.543	0.598	0.582	0.607	0.584	0.302
HARA	0.265	0.264	0.259	0.277	0.254	0.104	0.161	0.0982	0.568	0.52	0.485	0.517	0.548	0.558	0.492	0.578	0.594	0.295	0.189
HCC-15	0.215	0.229	0.241	0.217	0.2	0.286	0.137	0.167	0.808	0.932	0.881	0.839	0.869	0.733	0.805	0.75	0.803	0.625	0.186
HCC-44	0.624	0.652	0.639	0.721	0.69	0.438	0.221	0.404	1.14	1.12	1.12	1.15	1.05	0.511	–	0.777	0.479	0.611	0.657
HCC-78	0.916	0.925	0.933	0.92	0.923	0.172	0.149	0.158	0.531	0.378	0.469	0.475	0.439	0.392	0.392	0.406	0.386	0.419	0.276
HCC-366	0.187	0.151	0.154	0.219	0.228	0.142	0.0733	0.0469	0.276	0.493	0.439	0.438	0.328	0.962	0.94	1.02	0.931	0.452	0.181
HCC-827	0.289	0.267	0.264	0.265	0.253	0.59	0.548	0.388	0.768	0.81	1.04	0.783	0.885	0.73	0.94	0.889	0.783	0.736	0.878

Cell Line	relative viability ([1]; first compound 0.1 µM)	relative viability ([1]; first compound 0.3162 µM)	relative viability ([1]; first compound 1 µM)	relative viability ([1]; first compound 3.162 µM)	relative viability ([1]; first compound 10 µM)	relative viability ([2]; first compound 2 µM)	relative viability ([2]; first compound 6.325 µM)	relative viability ([2]; first compound 20 µM)	relative viability ([3]; first compound 0.1 µM)	relative viability ([3]; first compound 0.3162 µM)	relative viability ([3]; first compound 1 µM)	relative viability ([3]; first compound 3.162 µM)	relative viability ([3]; first compound 10 µM)	relative viability ([4]; first compound 0.1 µM)	relative viability ([4]; first compound 0.3162 µM)	relative viability ([4]; first compound 1 µM)	relative viability ([4]; first compound 3.162 µM)	relative viability ([4]; first compound 10 µM)	relative viability ([2]; first compound 0.6325 µM)
HOP-62	0.327	0.292	0.344	0.334	0.284	0.261	0.13	0.269	0.563	0.693	0.632	0.724	0.639	0.912	1.02	1.1	0.915	0.928	0.239
IA-LM	–	–	–	–	–	0.234	0.265	0.116	0.795	0.993	0.964	0.978	0.977	–	–	–	–	–	0.367
LC-2-ad	0.262	0.25	0.31	0.258	0.247	0.315	0.231	0.116	0.739	0.738	0.697	0.693	0.633	0.733	0.821	1.04	0.979	0.789	0.146
LCLC-97TM1	0.188	0.175	0.19	0.184	0.178	0.219	0.167	0.279	0.741	0.705	0.823	0.629	0.669	0.486	0.551	0.627	0.496	0.485	0.12
LCLC-103H	0.469	0.464	0.482	0.492	0.5	0.51	0.331	0.408	0.804	0.821	0.855	0.781	0.729	0.512	0.576	0.567	0.486	0.56	0.406
LK-2	0.362	0.343	0.347	0.245	0.304	0.58	0.34	0.294	0.294	0.265	0.363	0.301	0.224	0.182	0.169	0.227	0.177	0.183	0.558
LOU-NH91	0.399	0.345	0.456	0.389	0.378	0.518	0.409	0.35	1.01	0.871	1.03	0.979	0.902	0.752	0.642	0.74	0.774	0.728	0.517
LU99A	0.164	0.207	0.168	0.19	0.162	0.211	0.206	0.235	0.476	0.558	0.479	0.447	0.359	0.298	0.282	0.314	0.309	0.317	0.206
LXF-289	0.924	0.862	0.939	0.902	0.999	0.7	0.206	0.158	0.725	0.784	0.796	0.634	0.84	0.776	0.874	0.951	0.827	0.733	0.745
NCI-H23	0.787	0.687	0.834	0.715	0.705	0.442	0.256	0.258	0.473	0.602	0.571	0.587	0.48	0.659	0.523	0.782	0.709	0.5	0.397
NCI-H522	1.26	0.966	1.18	1.02	1.16	–	–	–	0.88	0.803	1.01	0.941	0.932	0.823	0.726	0.71	0.708	0.716	–
NCI-H727	–	–	–	–	–	0.353	0.35	0.289	–	1.13	1.13	1.08	1.23	0.553	0.642	0.559	0.565	0.455	0.277
NCI-H1299	–	–	–	–	–	0.563	0.256	0.0872	–	–	–	–	–	–	–	–	–	–	0.516
NCI-H1563	0.772	0.785	0.84	0.725	0.733	0.684	0.731	0.3	–	–	–	–	–	0.772	0.778	0.819	0.75	0.786	0.59
NCI-H1623	–	–	–	–	–	–	–	–	–	–	–	–	–	0.435	0.421	0.428	0.443	0.448	–
NCI-H1648	0.682	0.861	0.531	0.659	0.558	–	–	–	0.416	0.572	0.563	0.51	0.754	–	–	0.255	0.251	0.221	–
NCI-H1703	–	–	–	–	–	0.308	0.381	0.221	–	–	–	–	–	–	–	–	–	–	0.236
NCI-H1792	0.734	1.04	1.24	0.77	0.842	0.199	0.106	0.11	–	–	–	–	–	0.682	1.05	0.969	0.939	0.707	0.281
NCI-H2342	0.757	–	0.831	0.812	0.711	–	–	–	0.724	–	0.718	0.884	0.716	0.541	0.594	0.622	0.641	0.62	–
SW 900	0.484	0.494	0.498	0.478	0.461	–	–	–	0.36	0.584	0.782	0.621	0.221	0.684	0.595	0.782	0.604	0.53	–
